Assay results reported in patent US20150273076A1, “SP1 POLYPEPTIDES, MODIFIED SP1 POLYPEPTIDES AND USES THEREOF” (Fulcrum SP Ltd., priority 2006, published 2015).

Legend:
[1] = Doxorubicin complex formation and release (ultrafiltration, HPLC, SDS PAGE fluorescence); assay type: binding; conditions: reducing conditions (DTT or GSH)
Method: Pure wild type SP1 or Cys2 SP1 mutant (1.5 mg/ml in 20 mM Sodium Phosphate buffered, pH=6.8) were incubated overnight at room temp, with DOX 1 mg/ml in the presence of DTT (10 mM), with gentle rolling. Binding reaction was stopped by adding hydrogen peroxide (0.01%), followed by ultra filtration (using 30 kD cutoff filter) and extensive wash until follow-through become colorless. Optical density was measured at both 278 and 477 nm using nanodrop spectrophotometer. Note the dramatic effect of the reducing agent on drug binding by the Cys2 SP1, compared to the absence of effect on the wild type SP1.
FIG. 13 is a histogram illustrating the redox-dependent release of Doxorubicin by Cys2 SP1. Doxorubicin (DOX) was complexed within Cys2 SP1 as described in FIGS. 9-12 above. Release of the drug in the presence of 0, 2 and 20 mM GSH was measured by ultrafiltration and size exclusion HPLC analysis (detection at 228 and 475 nm);
FIG. 14 is a histogram illustrating the effect of oxidation on DOX complex formation by Cys2 SP1. Doxorubicin (DOX) was reacted with Cys2 SP1 and wild type SP1 as described in FIGS. 9-13 above. Oxidized protein indicates exposure to excess of H2O2 prior to treatment with GSH. DOX complex formation was measured by ultrafiltration and size exclusion HPLC analysis (detection at 228 and 475 nm). […] 1=the retentate; 2=the flow through; and 3=a DOX standard 20 μg/ml.
FIG. 17 is a photograph of a fluorescent PAGE analysis illustrating effective complex formation with DOX by Cys2 and SP1 fusion proteins. Recombinant wild type (lanes 1 and 2), Cys2 (lanes 3 and 4), and SP1 fusion proteins having additional N-terminal tumor specific peptide RGD (CRGD, SEQ ID NO:151; fusion protein is SEQ ID NO: 5)(lanes 5 and 6), or RGD in reverse order (RGDC, SEQ ID NO: 152; fusion protein is SEQ ID NO: 6)(lanes 7 and 8) were reacted with DOX to form complex as described in FIGS. 9-14 above, and then separated on SDS-PAGE with (lanes 2, 4, 6 and 8) or without (lanes 1, 3, 5 and 7) denaturation by boiling in LSB.
Ultrafiltration was used for the detection of complex formation with the water soluble ligands FA and DOX which have a distinctive absorption properties and can be determined by spectroscopic measurements. […] Several additional washing cycles remove all remaining free FA and DOX, and the ligand-SP1 complex remains in the retained fraction.
Size exclusion chromatography is a common method for separation of molecules of different sizes under mild conditions and was employed to test FA and DOX complex formation under mild conditions. SP1 is eluted from the column after 7 min and is detected at 278 nm only, and free FA is eluted from the column (TSK G3000 SWXL, Tosohaas) after 16 min and is detected at 490 nm. The SP1-FA and SP1-DOX complexes also eluted at the same time but is detected also at 490 and 475 nm, respectively. DOX/SP1 ratio is determine from the standard curve obtained in solution.
Reverse phase HPLC (RP-HPLC) analysis separates between free DOX, PXT, and SP1. Both compounds bind to the resin (C-18) and are eluted at different acetonitrile concentrations, and detected at both 278 and 225 nm (SP1), 225 nm (PTX) and 477 nm (DOX).
Pyrogen free Cys2 SP1 variant (SEQ ID NO:3) in 20 mM (Na Phosphate buffer pH-6.7) final 2 mg/ml was diluted with DOX solution (Teva, Israel) 1:2 dilution final 1 mg/ml. Where indicated, GSH was added, and the solution is mixed overnight. Where indicated (oxidized), H2O2 is added to 0.1%, buffer added to 3× volume, and the solution is sonicated (3×22 sec. 1:1 pulse/pause at 3% amplitude 0.5 min. pause, using a Vibra-Cell 750 W sonicator).

[2] = test system: Human colon adenocarcinoma (HT-29) cells; experiment: In-vitro cytotoxicity in HT-29 cells; assay type: cell-based; conditions: HT-29 cells, dose inhibiting 50% of cell growth
Excerpt: FIGS. 24a and 24b are graphs illustrating the in-vitro cytotoxic effects of SP1-DOX complex. FIG. 24a—HT-29 cells cultured in 96 well microtiter plates were exposed to uncomplexed DOX (closed oval, magenta) or SP1-DOX complex (closed triangle, blue) prepared as described in FIGS. 9-15, at the indicated concentrations. FIG. 24b—HT-29 cells were exposed to uncomplexed SP1 (without DOX) (closed diamond, blue) or SP1-DOX complex (closed triangle, yellow) at indicated concentrations. Proportion of living cells was determined by MTT assay, and the IC50 was calculated.
HT-29 cells were prepared as in FIG. 24 above.
Human colon adenocarcinoma (HT-29) cells. The cells were grown in 50-ml flasks containing DMEM medium (Biological Industries, Bet Haemek), supplemented with 10% fetal calf serum, 1% glutamine and 1% Antibiotic-Antimicotic solution (Biolab, Israel). The cells were trypsinizated, and 2 ml medium containing 5×10^4 cells were plated in each well of a 6-wells plate. SP1, drugs or SP1-complexed with drugs was added at the indicated concentrations. The cells were incubated at 37° C. in a humidified atmosphere containing 5% CO2.After 48 hours the medium in the presence or absence of drugs was replaced in each well respectively, to maintain a constant supply of ingredients and drugs. After four days the medium was removed and the number of viable cells in the cultures was determined by spectroscopy.
The human colorectal adenocarcinoma cell line, HT-29, was used to evaluate the biological activity of the SP1-DOX complex, compared to that of the free drug and un-complexed SP1 protein. […] Thus, the SP1-DOX complex is at least as biologically active as free DOX.

[3] = Immunogenicity: anti SP1 antibody production by ELISA; assay type: in vivo, C57B1 mice; conditions: after repetitive injections
Excerpt: In order to determine the degree of immunogenicity of SP1, anti SP1 antibody production in both PBS- and SP1-treated animals was detected using ELISA, using either directly immobilized SP1 or rabbit anti SP1 antibodies (second antibody was HRP conjugated anti mouse IgG). Serum obtained from both PBS- and SP1-treated animals had negligible anti-SP1 antibody reaction, with no difference between the two groups.

[4] = Heat stability (no precipitation after heat treatment); conditions: 10 min at 100° C. or 30 min at 85° C.

wild type: stress related SP1 protein from aspen (Populus tremula), recombinant, SEQ ID NO:1
DOX complex formation [1]: much lower extent
DOX complex formation ([1]; listed as wild type SP1): no complexes are formed
IC50 ([2]; listed as SP1): inactive
IC50 ([2]; listed as SP-1): absence of cytotoxicity
anti-SP1 antibody reaction in serum [3]: negligible
Heat stability [4]: +
